In ChEMBL document CHEMBL1146810, “Synthesis of a bromotyrosine-derived natural product inhibitor of mycothiol-S-conjugate amidase” (Bioorg Med Chem Lett, 2004):

What was measured:
[1] = Inhibitory activity against AcGI deacetylase was determined
[2] = tested on: Mycobacterium tuberculosis; test: Inhibitory activity against mycothiol-S-conjugate amidase (MCA) was determined

NCCCOc1c(Br)cc(C/C(=N\O)C(=O)NCCCCN=C(N)N)cc1Br gave an Inhibition [1] of 150 µM and an Inhibition [2] of 30 µM.
